Patent US20230181543A1, “TREATMENT OF CARM1-OVEREXPRESSING AND/OR ARID1A MUTANT CANCERS WITH IRE-1/XBP-1 INHIBITORS” (The Wistar Institute of Anatomy and Biology, priority 2020, published 2023)
“Also recorded” adds a separate entry of the source.

Assays:
EZH2 compared to EZH1 = EZH2 compared to EZH1 (Homo sapiens, UniProt Q15910); conditions: cited from earlier work
CARM1-high tumors = assay: Orthotopic CARM1-high and CARM1-low PDX and A1847 xenograft mouse models; format: in vivo, mice; conditions: CARM1-high vs CARM1-low PDX; wild-type vs CARM1 knockout A1847 xenograft
Text: (FIG. 18A) Hematoxylin and eosin (HE) staining, and immunohistochemical staining with anti-CARM1 antibody in CARM1-low and CARM1-high PDX. (FIG. 18B) Confirmation of CARM1 expression levels in CARM1-low and -high PDXs by western blotting. A1847 and OVCAR3 cell lysates were used as positive control for CARM1-high and CARM1-low expression, respectively. (FIGS. 18C-D) Schematic of experimental design for PDX mouse model was shown. Mice with indicated orthotopic CARM1-high and CARM1-low PDXs were randomized into two groups and treated with vehicle control or B-I09. Tumor weight was measured as a representation for tumor burden at the end of the treatment. (FIGS. 18E-F) Schematic of experimental design for orthotopic injection A1847 xenograft was shown. Mice with indicated orthotopic injection of wild-type or CARM1 knockout A1847 cells were randomized into two groups and treated with vehicle control or B-I09. Tumor weight was measured as a representation for tumor burden at the end of the treatment. (FIG. 18G) Kaplan-Meier survival curves for indicated xenograft groups. P value was calculated by log rank test. (FIG. 18H) Immunohistochemistry for apoptotic marker cleaved caspase 3 and proliferation marker Ki67, histological scores (H-score) were calculated for three separate fields from five tumors from five individual mice from each of the indicated groups.

ARID1A-mutant OCCC PDX = ARID1A-mutant OCCC PDX mice treated with B-I09; format: in vivo; conditions: ARID1A-mutant OCCC PDX mice (FIG. 45)
[1] = tested on: hematological malignancies; conditions: cited from earlier work
[2] = tested on: Arid1a flox/flox;(Gt)Rosa26Pik3ca*H1047R OCCC tumors; assay: Genetic OCCC mouse model (conditional inactivation of Arid1a, activation of Pik3ca)
A1847 cells = assay: Dose response of B-I09 in wild-type and CARM1 knockout A1847 cells; format: cell-based; conditions: wild-type vs CARM1 knockout A1847 cells (FIG. 3B)
[3] = tested on: A1847 cells with or without CARM1 knockout; assay: Western blotting of apoptotic markers (cleaved PARP, cleaved lamin A); format: cell-based; conditions: CARM1-high parental vs CARM1 knockout cells, B-I09 treatment
Text: (§1) FIGS. 4A-C. […] (FIG. 4A) Western blotting of apoptotic markers in A1847 cells with or without CARM1 knockout treated with or without B-I09. (FIGS. 4B-C) Schematics (FIG. 4B) and dose response curves (FIG. 4C) of A1847 cells with or without CARM1 knockout treated with B-I09 and rescued with BSA or oleic acid (OA).
FIGS. 15A-F. IRE-1a-XBP-1 pathway is required for CARM1-expressing OvCa. (FIG. 15A) Colony formation assays of wildtype and CARM1 knockout A 1847 and PEO4 cells treated with IRE-1α inhibitor B-I09 or 4μ8c. […] (FIG. 15C) Western blotting of apoptotic markers cleaved PARP and cleaved Lamin A and loading control β-actin. […] (FIG. 15D) The CARM1 levels in a panel of High Grade Serous Ovarian Cancer (HGSOC) cell lines were examined by western blotting. CARM1 is highly expressed in PEO4, OSAHO and A1847 cell lines. (FIG. 15E) Survival curves of colony formation assays of the panel of HGSOC cell lines treated with B-I09. (FIG. 15F) Comparison of IC50 of CARM1-high and CARM1-low HGSOC cell lines under treatment of B-I09.

ARID1A mutant tumor = ARID1A mutant tumor formation under B-I09; format: in vivo; conditions: FIG. 39, 40
[4] = B-I09 treatment with CD8 depletion; format: in vivo; conditions: FIG. 44
XBP-1 = conditions: B-I09 20 μM, 48 h (FIG. 3A)
Text: (FIG. 3B) Dose response curve of B-I09 in wild-type and CARM1 knockout A1847 cells. (FIG. 3C) The expression of CARM1 in different HGSOC cell lines. (FIG. 3D) The IC50 of B-I09 in CARM1-low and high HGSOC cells.
Next, the inventors investigated whether the activated IRE-1-XBP-1 pathway is required for the survival of CARM1-high parental cells. […] To investigate whether the IRE-1-XBP-1 inhibition suppresses CARM1-high cells through inducing cell death, western blotting of apoptotic markers was performed. […] Therefore, to investigate whether lipid biosynthesis affects the selectivity of CARM1-high cells to inhibit the XBP-1 pathway, cells are treated with B-I09 to inhibit the XBP-1 pathway and rescued with control BSA or oleic acid (OA) (FIG. 4B), which is the upstream product for lipid biosynthesis (Yao et al., 2017).

UPK10 cells = assay: Orthotopic UPK10 xenograft, B-I09 with PD-1 immune therapy; format: in vivo, B6 Mice; conditions: B-I09 50 mg per kg, 5 weekdays per week i.p., with PD-1 10 mg per kg twice per week
Description: (FIG. 19A) Western blotting of CARM1 and loading control […]-actin in UPK10, […] and OVCAR3 cells. (FIG. 19B) Schematic of experimental design for orthotopic injection UPK10 xenograft was shown. B6 Mice with indicated orthotopic injection of UPK10 cells were randomized into four different treatment groups and treated with control vehicle, B-[…] (50 mg per kg, 5 weekdays per week by i.p.), PD-1 (10 mg per kg, twice per week) or a combination. (FIG. 19C) Tumor weight was measured as a representation for tumor burden at the end of the treatment. coefficient of drug interaction (CDI) was calculated. (FIG. 19D) Tumor infiltrated lymphocytes (TILs) was analyzed by flow cytometry. The percentage of CD4^+ T cell, CD8^+ T cell, B cell in […] cell and macrophage were shown.

[5] = tested on: A1847 cells with or without CARM1 knockout; assay: Oleic acid rescue of B-I09-treated cells; format: cell-based; conditions: cells treated with B-I09, rescued with BSA or oleic acid (FIG. 4C); preliminary
Text: as §1

RMG1 cells = assay: Cisplatin and B-I09 combination in RMG1 wild-type and ARID1A knock-out cells; format: cell-based; conditions: RMG1 wild-type vs RMG1 ARID1A knock-out cells (FIG. 11); preliminary
Text: FIG. 11. […] IC50 of cisplatin in RMG1 wild-type compared to RMG1 ARID1A knock-out cells in combination with B-I09. Data from 3 replicates.
Resistance to cisplatin has been associated with an increase in ER stress-mediated cellular survival mechanisms in ovarian cancer (Avril et al., 2017; Lei et al., 2015; Xu et al., 2015). […] The inventors hypothesize that ER stress inhibition is synergistic with platinum-based chemotherapy in ARID1A-mutated OCCCs. To test this hypothesis, the inventors will treat ARID1A wild-type, ARID1A CRISPR-Cas9 knock-out, and ARID/A-mutant or wild-type OCCC cells with increasing concentrations of cisplatin or carboplatin. ER stress response induction will be analyzed by western blot and RT-qPCR analyzing the expression of ER stress response proteins such as IRE-1, XBP-1, PERK, ATF6 and BiP. They expect that platinum-based therapy-induces enhanced ER stress responses in ARID1A mutant/knock-out cells. ER stress response induction may sensitize them to treatment combination of platinum-based therapies and B-I09. […] The inventors will expand this analysis into a panel of ARID1A wild-type (such as RMG1, OVCA429 and KK) and mutant (such as TOV21G, OVTOKO, and OVISE) OCCC cell lines to further establish the efficacy of combination treatment of platinum-based therapy and B-I09. […]

Sequence of EZH2 compared to EZH1 (Q15910 whole entry): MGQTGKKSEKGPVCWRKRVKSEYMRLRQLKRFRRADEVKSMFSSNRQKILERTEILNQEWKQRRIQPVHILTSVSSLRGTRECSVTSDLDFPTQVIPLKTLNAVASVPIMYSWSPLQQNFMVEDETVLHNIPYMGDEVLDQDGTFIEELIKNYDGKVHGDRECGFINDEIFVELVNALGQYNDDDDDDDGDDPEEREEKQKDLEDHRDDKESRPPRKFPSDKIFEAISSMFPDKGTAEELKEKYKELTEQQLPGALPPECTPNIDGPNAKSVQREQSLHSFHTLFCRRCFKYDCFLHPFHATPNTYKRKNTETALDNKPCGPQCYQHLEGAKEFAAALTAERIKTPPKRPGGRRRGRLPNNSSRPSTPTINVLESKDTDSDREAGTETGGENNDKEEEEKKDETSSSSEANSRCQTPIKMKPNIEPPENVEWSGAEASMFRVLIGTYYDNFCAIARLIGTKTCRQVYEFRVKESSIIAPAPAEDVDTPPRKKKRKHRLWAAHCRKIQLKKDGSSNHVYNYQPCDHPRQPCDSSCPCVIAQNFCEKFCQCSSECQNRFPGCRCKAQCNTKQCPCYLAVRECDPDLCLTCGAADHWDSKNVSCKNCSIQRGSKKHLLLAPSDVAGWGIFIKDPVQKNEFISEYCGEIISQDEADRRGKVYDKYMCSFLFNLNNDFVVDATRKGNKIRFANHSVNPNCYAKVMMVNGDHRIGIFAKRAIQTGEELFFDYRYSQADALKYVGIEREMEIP
Sequence of EZH2 compared to EZH1 (O75530 whole entry partner): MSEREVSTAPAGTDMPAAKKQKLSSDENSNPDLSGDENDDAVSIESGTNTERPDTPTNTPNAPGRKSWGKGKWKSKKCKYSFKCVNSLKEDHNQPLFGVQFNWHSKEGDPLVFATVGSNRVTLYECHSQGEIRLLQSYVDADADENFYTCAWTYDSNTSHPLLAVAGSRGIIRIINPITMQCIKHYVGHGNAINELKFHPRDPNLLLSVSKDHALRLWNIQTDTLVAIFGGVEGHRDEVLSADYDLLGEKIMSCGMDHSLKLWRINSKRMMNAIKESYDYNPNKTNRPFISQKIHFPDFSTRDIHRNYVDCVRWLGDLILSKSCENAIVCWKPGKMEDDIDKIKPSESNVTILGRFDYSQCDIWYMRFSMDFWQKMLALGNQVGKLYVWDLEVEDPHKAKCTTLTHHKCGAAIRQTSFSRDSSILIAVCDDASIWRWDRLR
Sequence of EZH2 compared to EZH1 (Q15022 whole entry partner): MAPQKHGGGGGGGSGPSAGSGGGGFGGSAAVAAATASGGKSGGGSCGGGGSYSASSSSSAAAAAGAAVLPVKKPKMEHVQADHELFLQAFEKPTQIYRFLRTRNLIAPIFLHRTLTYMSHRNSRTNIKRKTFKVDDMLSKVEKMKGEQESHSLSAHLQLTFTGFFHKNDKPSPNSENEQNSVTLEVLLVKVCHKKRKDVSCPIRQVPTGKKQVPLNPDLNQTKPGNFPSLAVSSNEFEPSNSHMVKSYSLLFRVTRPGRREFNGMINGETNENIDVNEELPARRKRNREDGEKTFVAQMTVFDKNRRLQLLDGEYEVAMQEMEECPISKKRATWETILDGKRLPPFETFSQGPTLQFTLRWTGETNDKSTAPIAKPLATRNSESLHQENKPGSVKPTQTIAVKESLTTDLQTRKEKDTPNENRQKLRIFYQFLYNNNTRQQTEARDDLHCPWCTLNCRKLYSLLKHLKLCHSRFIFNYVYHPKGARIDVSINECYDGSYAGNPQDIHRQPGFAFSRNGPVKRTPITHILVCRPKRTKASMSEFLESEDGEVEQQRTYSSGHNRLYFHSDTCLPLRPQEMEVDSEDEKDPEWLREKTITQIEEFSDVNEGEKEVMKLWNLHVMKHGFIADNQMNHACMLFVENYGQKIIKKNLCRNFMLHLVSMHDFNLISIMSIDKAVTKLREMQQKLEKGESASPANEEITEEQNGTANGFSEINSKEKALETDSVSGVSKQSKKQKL
Sequence of EZH2 compared to EZH1 (Q09028 whole entry partner): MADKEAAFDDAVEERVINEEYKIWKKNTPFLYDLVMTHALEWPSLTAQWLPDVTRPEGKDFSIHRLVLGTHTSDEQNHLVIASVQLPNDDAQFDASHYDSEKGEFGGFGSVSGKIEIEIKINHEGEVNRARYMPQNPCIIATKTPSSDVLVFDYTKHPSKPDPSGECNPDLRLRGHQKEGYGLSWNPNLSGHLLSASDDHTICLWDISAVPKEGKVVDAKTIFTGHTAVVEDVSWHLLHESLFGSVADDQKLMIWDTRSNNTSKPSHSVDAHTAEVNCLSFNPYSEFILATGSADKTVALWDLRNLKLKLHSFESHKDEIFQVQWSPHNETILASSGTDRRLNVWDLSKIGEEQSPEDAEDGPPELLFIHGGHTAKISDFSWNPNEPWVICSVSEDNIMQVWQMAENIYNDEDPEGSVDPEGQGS

## Cc1cc(C)c(CNC(=O)c2cc(-c3ccc(CN4CCOCC4)cc3)cc3c2cnn3C2CCCC2)c(=O)[nH]1 [EPZ005687]
EZH2 compared to EZH1
  selectivity for EZH2 over EZH1: 50 fold

## O=c1oc2c(C3OCCCO3)c(O)ccc2c2c1CNCC2 [B-I09]
CARM1-high tumors
  sensitivity of tumors (tumor weight, survival) to B-I09: CARM1-high tumors are sensitive to IRE-1α-XBP-1 inhibition
ARID1A-mutant OCCC PDX
  tumor growth: suppresses tumor growth
[1]
  efficacy in hematological malignancies: has been effective in treating hematological malignancies
[2]; 50 mg/Kg B-I09, tumor bearing mice
  survival (Kaplan-Meier): enhances mouse survival
[2]; 50 mg/Kg B-I09 for 3 weeks (5 days on/2 off)
  tumor growth / progression (tumor weight): reduces OCCC tumor growth in vivo; also recorded: suppresses tumor progression
A1847 cells
  sensitivity to B-I09, dose response curve: wild-type cells are significantly more sensitive to B-I09 compared with knockout cells
[3]
  induction of apoptosis (cleaved PARP, cleaved lamin A): specifically induces apoptosis in CARM1-high cells; also recorded: specifically induced apoptosis in wildtype CARM1-high cells; also recorded: selectively induced apoptosis in CARM1-high but not CARM1-low or CARM1 knockout HGSOC cells
ARID1A mutant tumor
  ARID1A mutant tumor formation: selectively suppresses ARID1A mutant tumor formation
[4]
  effect of CD8 depletion on B-I09 treatment: CD8 depletion does not affect B-I09 treatment
XBP-1
  activation of XBP-1 / expression of active XBP-1s: inhibits the activation of XBP-1; also recorded: decreasing the expression of active XBP-1s
UPK10 cells
  drug interaction on tumor weight (coefficient of drug interaction): synergizes with PD-1 immune therapy

## CCCCCCCC/C=C\CCCCCCCC(=O)O [oleic acid]
[5]
  rescue from B-I09 inhibition of XBP-1: can rescue A1847 wild-type cells from the inhibition of XBP-1 but has no effect on CARM1 knockout cells

## N.N.[Cl][Pt][Cl] [cisplatin]
RMG1 cells
  IC50 of cisplatin in combination with B-I09: reduces the IC50 of cisplatin more effectively in RMG1 CRISPR/Cas9 KO cells compared to their wild-type parental control; also recorded: Loss of ARID1A promotes sensitivity to cisplatin and B-I09 combination
